The values that follow come from patent US9682940B2, “Indazole derivatives useful as CB-1 inverse agonists” (Janssen Pharmaceutica NV, priority 2015, dated 2017).

Molecules are shown by their SMILES.

Assay [1] deals with Human CB2R (Cannabanoid receptor 2) (Homo sapiens (Human), UniProt P34972). Nature of the assay: CB-2 in vitro cAMP (HTRF) assay in HEK-293 cells. The class given is cell-based. Conditions: HEK-293 cells stably transfected with human CB2R, 250 nM Forskolin, mean where tested more than once, read-out: CB-2 (HEK_cAMP) EC50. Put shortly:
(§1)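 HEK-293 cells stably expressing human CB1 or CB2 plated overnight, then tested in HBSS/5 mM HEPES/0.1% BSA with 0.5 mM IBMX and forskolin (1.5 μM working dilution). Intracellular cAMP quantified by competitive HTRF immunoassay (d2-cAMP, cryptate anti-cAMP) against a cAMP standard curve; compounds as 1/3 serial dilutions from 10 mM DMSO stocks.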

Assay [2] addresses Human CB1R (Cannabanoid receptor 1) (Homo sapiens (Human), UniProt P21554). Kind of assay: CB-1 in vitro cAMP (HTRF) assay in HEK-293 cells. Conditions: HEK-293 cells stably transfected with human CB1R, 250 nM Forskolin, mean where tested more than once, read-out: CB-1 (HEK_cAMP) EC50. The class given is cell-based. The method, boiled down:
as §1

Chain of Human CB2R (Cannabanoid receptor 2) (P34972 whole entry): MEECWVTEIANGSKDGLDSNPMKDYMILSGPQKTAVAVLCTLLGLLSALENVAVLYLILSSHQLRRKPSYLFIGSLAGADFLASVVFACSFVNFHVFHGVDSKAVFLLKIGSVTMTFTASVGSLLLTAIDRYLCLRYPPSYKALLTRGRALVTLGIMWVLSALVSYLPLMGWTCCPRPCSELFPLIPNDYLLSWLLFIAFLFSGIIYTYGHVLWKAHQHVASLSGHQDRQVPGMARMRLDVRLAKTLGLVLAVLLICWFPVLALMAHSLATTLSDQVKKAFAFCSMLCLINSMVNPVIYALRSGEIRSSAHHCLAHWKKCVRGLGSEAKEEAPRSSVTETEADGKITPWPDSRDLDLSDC
Chain of Human CB1R (Cannabanoid receptor 1) (P21554 whole entry): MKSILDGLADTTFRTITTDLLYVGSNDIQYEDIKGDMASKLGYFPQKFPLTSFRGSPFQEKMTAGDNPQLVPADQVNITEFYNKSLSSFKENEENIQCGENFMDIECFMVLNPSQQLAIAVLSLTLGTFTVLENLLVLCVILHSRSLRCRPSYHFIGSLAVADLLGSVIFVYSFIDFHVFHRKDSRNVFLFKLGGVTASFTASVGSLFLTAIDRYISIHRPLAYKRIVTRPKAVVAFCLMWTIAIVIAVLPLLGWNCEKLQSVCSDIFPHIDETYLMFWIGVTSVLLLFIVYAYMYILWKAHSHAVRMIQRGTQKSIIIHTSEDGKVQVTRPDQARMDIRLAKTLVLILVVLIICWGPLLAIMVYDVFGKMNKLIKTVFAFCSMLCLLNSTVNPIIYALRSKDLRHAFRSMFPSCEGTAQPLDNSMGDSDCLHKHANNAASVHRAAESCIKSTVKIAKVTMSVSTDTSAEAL

In the case of `O=C(O)CCS(=O)(=O)N1CCC(c2nn(CCO)c3ccc(C(c4ccc(Cl)cc4)c4ccc(Cl)cc4)cc23)CC1` [Compound 83], the EC50 (commonly the concentration giving half of the maximal effect) in assay [1] is more than 10 µM; in assay [2] it was 1570 nM.
Turning to `O=C(O)COc1ccc(N2CCC(c3c4cc(C(c5ccc(Cl)cc5)c5ccc(Cl)cc5)ccc4nn3C3CC3)CC2)cc1` [Compound 196], the EC50 in assay [1] is more than 10 µM; in assay [2], 4180 nM.
For `O=C(O)c1ccc(S(=O)(=O)N2CCC(c3c4cc(C(c5ccc(Cl)cc5)c5ccc(Cl)cc5)ccc4nn3C3CC3)CC2)cn1` [Compound 160, 5-(4-(5-(bis(4-chlorophenyl)methyl)-2-cyclopropyl-2H-indazol-3-yl)piperidin-1-ylsulfonyl)picolinic acid] the same measures were 4.4 µM and 5 nM.
In the same order, the values of `O=S(=O)(N1CCC(c2nn(-c3ccc(C(F)(F)F)cc3)c3ccc(C(c4ccc(Cl)cc4)c4ccc(Cl)cc4)cc23)CC1)C(F)(F)F` [Compound 46] are more than 10 µM and 40 nM.
In the same order, the values of `CC(C)(C)OC(=O)N1CCC(c2n[nH]c3ccc(C(c4ccc(Cl)cc4)c4ccc(Cl)cc4)cc23)CC1` [Compound 39] are more than 10 µM and 144 nM.
As for `NC(=O)c1ccccc1S(=O)(=O)N1CCC(Nc2n[nH]c3ccc(C(c4ccc(Cl)cc4)c4ccc(Cl)cc4)cc23)CC1` [Compound 121], the EC50 was more than 10 µM in assay [1] and 375 nM in assay [2].
In the same order, the values of `O=S(=O)(N1CCC(c2n[nH]c3ccc(C(c4ccc(Cl)cc4)c4ccc(Cl)cc4)cc23)CC1)C(F)(F)F` [Compound 173] are 5.78 µM and 7 nM.
For `NS(=O)(=O)c1ccc(C(=O)N2CCC(c3nn(CCO)c4ccc(C(c5ccc(Cl)cc5)c5ccc(Cl)cc5)cc34)CC2)cc1` [Compound 72] the same measures were more than 10 µM and 39 nM.
In the same order, the values of `NC(=O)c1cccc(CN2CCC(c3n[nH]c4ccc(C(c5ccc(Cl)cc5)c5ccc(Cl)cc5)cc34)CC2)c1` [Compound 220] are more than 10 µM and 27 nM.
Take `O=C(O)Cn1nc(C2CCN(S(=O)(=O)C(F)(F)F)CC2)c2cc(C(c3ccc(Cl)cc3)c3ccc(Cl)cc3)ccc21` [Compound 73]: the EC50 in assay [1] was more than 10 µM; in assay [2], 762 nM.
Take `NC(=O)CS(=O)(=O)N1CCC(c2n[nH]c3ccc(C(c4ccc(Cl)cc4)c4ccc(Cl)cc4)cc23)CC1` [Compound 25]: the results for the EC50 in assay [1] and in assay [2] were more than 10 µM and 1230 nM, respectively.
For `NC(=O)c1ccc(S(=O)(=O)N2CCC(c3c4cc(C(c5ccc(Cl)cc5)c5ccc(Cl)cc5)ccc4nn3C3CC3)CC2)cn1` [Compound 165, 5-(4-(5-(bis(4-chlorophenyl)methyl)-2-cyclopropyl-2H-indazol-3-yl)piperidin-1-ylsulfonyl)picolinamide] the same measures were more than 10 µM and 13 nM.
For `O=S(=O)(N1CCC(c2nn(C3CC3)c3ccc(C(c4ccc(Cl)cc4)c4ccc(Cl)cc4)cc23)CC1)C(F)(F)F` [Compound 275], the EC50 in assay [1] is more than 10 µM; in assay [2] it was 24 nM.
As for `NC(=O)c1ccc(S(=O)(=O)N2CCC(c3c4cc(C(c5ccc(Cl)cc5)c5ccc(Cl)cc5)ccc4nn3C3CC3)CC2)cc1Cl` [Compound 153, 4-(4-(5-(bis(4-chlorophenyl)methyl)-2-cyclopropyl-2H-indazol-3-yl)piperidin-1-ylsulfonyl)-2-chlorobenzamide], the EC50 in assay [1] was more than 10 µM; in assay [2], 17 nM.
In the same order, the values of `COC(=O)c1ccc(S(=O)(=O)N2CCC(c3n[nH]c4ccc(C(c5ccc(Cl)cc5)c5ccc(Cl)cc5)cc34)CC2)cc1` [Compound 24] are more than 10 µM and 151 nM.
With `COc1cc(S(=O)(=O)N2CCC(c3c4cc(C(c5ccc(Cl)cc5)c5ccc(Cl)cc5)ccc4nn3C3CC3)CC2)ccc1C(N)=O` [Compound 146, 4-(4-(5-(bis(4-chlorophenyl)methyl)-2-cyclopropyl-2H-indazol-3-yl)piperidin-1-ylsulfonyl)-2-methoxybenzamide], the EC50 in assay [1] is more than 10 µM; in assay [2], 7 nM.
With `O=C(O)c1ccc(CN2CCC(c3nn(C4CC4)c4ccc(C(c5ccc(Cl)cc5)c5ccc(Cl)cc5)cc34)CC2)cc1` [Compound 209], the concentration for a half-maximal effect (EC50) in assay [1] was more than 10 µM; in assay [2], 68 nM.
For the compound `O=C(O)c1ccccc1S(=O)(=O)N1CCC(c2c3cc(C(c4ccc(Cl)cc4)c4ccc(Cl)cc4)ccc3nn2C2CC2)CC1` [Compound 123], the EC50 in assay [1] was more than 10 µM; in assay [2] it was 5800 nM.
For `O=C(O)c1ccc(C(c2ccc(Cl)cc2)c2ccc3nn(C4CC4)c(C4CCN(S(=O)(=O)C(F)(F)F)CC4)c3c2)cc1` (stereo not drawn) [Compound 238, 4-[(4-chlorophenyl) ([2-cyclopropyl-3-[1-(trifluoromethane)sulfonylpiperidin-4-yl]-2H-indazol-5-yl])methyl]benzoic acid] the same measures were more than 10 µM and 198 nM.
As to `O=C(O)c1ccc(S(=O)(=O)N2CCC(c3nn(C4CC4)c4ccc(C(c5ccc(Cl)cc5)c5ccc(Cl)cc5)cc34)CC2)cc1` [Compound 89], the EC50 is more than 10 µM in assay [1] and 339 nM in assay [2].
For `O=S(=O)(c1ccc(O)cc1)N1CCC(Nc2n[nH]c3ccc(C(c4ccc(Cl)cc4)c4ccc(Cl)cc4)cc23)CC1` [Compound 130] the same measures were more than 10 µM and 15 nM.
For `O=C(O)c1ccc(S(=O)(=O)N2CCC(c3n[nH]c4ccc(C(c5ccc(Cl)cc5)c5ccc(Cl)cc5)cc34)C2)o1` (stereo not drawn) [Compound 270] the same measures were more than 10 µM and 9600 nM.
For `O=C(O)CCC(=O)N1CCC(c2nn(C3CC3)c3ccc(C(c4ccc(Cl)cc4)c4ccc(Cl)cc4)cc23)CC1` [Compound 107] the same measures were more than 10 µM and 920 nM.
For `O=C(CCO)N1CCC(c2nn(C3CC3)c3ccc(C(c4ccc(Cl)cc4)c4ccc(Cl)cc4)cc23)CC1` [Compound 108], the EC50 in assay [1] is more than 10 µM; in assay [2] it was 37 nM.
For `CNC(=O)c1ccc(S(=O)(=O)N2CCC(c3c4cc(C(c5ccc(Cl)cc5)c5ccc(Cl)cc5)ccc4nn3C3CC3)CC2)cc1OC` [Compound 147, 4-(4-(5-(bis(4-chlorophenyl)methyl)-2-cyclopropyl-2H-indazol-3-yl)piperidin-1-ylsulfonyl)-2-methoxy-N-methylbenzamide] the same measures were more than 10 µM and 23 nM.
In the same order, the values of `O=S(=O)(c1cccc(C(F)(F)F)c1)N1CCC(c2n[nH]c3ccc(C(c4ccc(Cl)cc4)c4ccc(Cl)cc4)cc23)CC1` [Compound 59] are more than 10 µM and 374 nM.
For `O=C(O)c1ccc(CN2CCC(c3c4cc(C(c5ccc(Cl)cc5)c5ccc(Cl)cc5)ccc4nn3C3CC3)CC2)s1` [Compound 242, 5-((4-(5-(bis(4-chlorophenyl)methyl)-2-cyclopropyl-2H-indazol-3-yl)piperidin-1-yl)methyl)thiophene-2-carboxylic acid], the results for the EC50 in assay [1] and in assay [2] were more than 10 µM and 16 nM, respectively.
In the same order, the values of `O=S(=O)(N1CCC(c2nn(-c3ccc(OC(F)(F)F)cc3)c3ccc(C(c4ccc(Cl)cc4)c4ccc(Cl)cc4)cc23)CC1)C(F)(F)F` [Compound 49] are more than 10 µM and 18 nM.
For `O=C(O)c1ccccc1Cn1nc(N2CCN(S(=O)(=O)C(F)(F)F)CC2)c2cc(C(c3ccc(Cl)cc3)c3ccc(Cl)cc3)ccc21` [Compound 45] the same measures were more than 10 µM and 941 nM.
For `COC(=O)CC(=O)N1CCC(c2n[nH]c3ccc(C(c4ccc(Cl)cc4)c4ccc(Cl)cc4)cc23)CC1` [Compound 51] the same measures were more than 10 µM and 152 nM.
`O=C(O)c1ccc(S(=O)(=O)N2CCC(c3nn(CCO)c4ccc(C(c5ccc(Cl)cc5)c5ccc(Cl)cc5)cc34)CC2)cc1` [Compound 80]: the figures for the concentration giving a half-maximal response (EC50) in assay [1] and in assay [2] were more than 10 µM and 374 nM, respectively.
For `O=C(O)c1ccc(N2CCC(c3nn(C4CC4)c4ccc(C(c5ccc(Cl)cc5)c5ccc(Cl)cc5)cc34)CC2)cc1` [Compound 198] the same measures were more than 10 µM and 150 nM.
`CCOC(=O)N1CCC(c2n[nH]c3ccc(C(c4ccc(Cl)cc4)c4ccc(Cl)cc4)cc23)CC1` [Compound 268]: the EC50 was 12.4 µM in assay [1] and 32 nM in assay [2].
In the same order, the values of `NC(=O)c1ccc(C(=O)N2CCC(c3c4cc(C(c5ccc(Cl)cc5)c5ccc(Cl)cc5)ccc4nn3C3CC3)CC2)cc1` [Compound 114] are 9.9 µM and 283 nM.
For `NC(=O)COc1ccc(N2CCC(c3c4cc(C(c5ccc(Cl)cc5)c5ccc(Cl)cc5)ccc4nn3C3CC3)CC2)cc1` [Compound 197, 2-(4-(4-(5-(bis(4-chlorophenyl)methyl)-2-cyclopropyl-2H-indazol-3-yl)piperidin-1-yl)phenoxy)acetamide] the same measures were 7.1 µM and 32 nM.
With `NC(=O)c1cccc(S(=O)(=O)N2CCC(c3n[nH]c4ccc(C(c5ccc(Cl)cc5)c5ccc(Cl)cc5)cc34)CC2)c1` [Compound 66], the EC50 in assay [1] is more than 10 µM; in assay [2] it was 160 nM.
Turning to `O=S(=O)(N1CCC(c2nn(-c3ccc(F)cc3)c3ccc(C(c4ccc(F)cc4)c4ccc(Cl)cc4)cc23)CC1)C(F)(F)F` (stereo not drawn) [Compound 50], the EC50 in assay [1] is more than 10 µM; in assay [2], 59 nM.
For the compound `O=C(O)COc1ccc(N2CCC(c3n[nH]c4ccc(C(c5ccc(Cl)cc5)c5ccc(Cl)cc5)cc34)CC2)cc1` [Compound 211], the EC50 in assay [1] is more than 10 µM; in assay [2], 4690 nM.
As to `COC(=O)c1ccc(CN2CCC(c3n[nH]c4ccc(C(c5ccc(Cl)cc5)c5ccc(Cl)cc5)cc34)CC2)cc1` [Compound 258], the EC50 was more than 42 µM in assay [1] and 428 nM in assay [2].
